Assay results: the supplement of paper PMC10627819

Tests used:
[1] = system: B. subtilis 168; assay: fitness (endpoint OD595 vs no drug) (fraction); higher = more growth
Summary of the method: (§1)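 Growth medium was TSB, LB Lennox or CY, and plates were kept at 37 °C. Inoculation was at OD595 0.01 in 384-well plates, at 30 µl per well or 55 µl for S. pneumoniae. OD595 was monitored every 30 min for 14 h and background-subtracted using the first reading. Fitness is the optical density on entering stationary phase divided by the robust mean of no-drug controls, with values capped at 1.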

[2] = system: S. pneumoniae D39V; assay: as above
Summary of the method: as §1

[3] = system: B. subtilis 168; assay: Bliss interaction score (quartile over a dose matrix) (fitness difference); higher = more antagonism (negative = synergy)
Summary of the method: (§2)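 Fitness was OD595 at entry into stationary phase divided by the plate's robust no-drug mean and capped at 1; single-drug fitness was inferred from combination data. The Bliss score is observed minus expected (product) fitness, summarised by quartiles over technical, biological and donor/recipient replicates.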

[4] = system: S. aureus DSM 20231; assay: as above
Summary of the method: as §2

[5] = system: S. aureus Newman; assay: as above
Summary of the method: as §2

[6] = system: S. pneumoniae D39V; assay: as above
Summary of the method: as §2
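For Bliss interaction score (quartile over a dose matrix) in this document: first quartile when negative (synergy) and third quartile when positive (antagonism).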

C[C@H]1c2cccc(O)c2C(=O)C2=C(O)[C@]3(O)C(=O)C(C(N)=O)=C(O)[C@@H](N(C)C)[C@@H]3[C@@H](O)[C@@H]21 [Doxycycline] + COc1c(N2C[C@@H]3CCCN[C@@H]3C2)c(F)cc2c(=O)c(C(=O)O)cn(C3CC3)c12 [Moxifloxacin]
Settings | fitness
[1], first compound 0.02 µg/mL, partner 0.0312 µg/mL | 0.0633
[1], first compound 0.02 µg/mL, partner 0.0625 µg/mL | 0.0369
[1], first compound 0.02 µg/mL, partner 0.125 µg/mL | 0.0526
[1], first compound 0.02 µg/mL, partner 2 µg/mL | 0.0252
[1], first compound 0.02 µg/mL, partner 4 µg/mL | 0.0301
[1], first compound 0.02 µg/mL, partner 8 µg/mL | 0.061
[1], first compound 0.04 µg/mL, partner 0.0312 µg/mL | 0.0435
[1], first compound 0.04 µg/mL, partner 0.0625 µg/mL | 0.0347
[1], first compound 0.04 µg/mL, partner 0.125 µg/mL | 0.0489
[1], first compound 0.04 µg/mL, partner 2 µg/mL | 0.0204
[1], first compound 0.04 µg/mL, partner 4 µg/mL | 0.013
[1], first compound 0.04 µg/mL, partner 8 µg/mL | 0.0253
[1], first compound 0.08 µg/mL, partner 0.0625 µg/mL | 0.03
[1], first compound 0.08 µg/mL, partner 0.125 µg/mL | 0.0215
[1], first compound 0.08 µg/mL, partner 2 µg/mL | 0.0234
[1], first compound 0.08 µg/mL, partner 4 µg/mL | 0.0247
[1], first compound 0.08 µg/mL, partner 8 µg/mL | 0.0278
[2], first compound 0.0155 µg/mL, partner 0.0037 µg/mL | 0.791
[2], first compound 0.0155 µg/mL, partner 0.005 µg/mL | 0.918
[2], first compound 0.0155 µg/mL, partner 0.0075 µg/mL | 0.838
[2], first compound 0.0155 µg/mL, partner 0.01 µg/mL | 0.919
[2], first compound 0.0155 µg/mL, partner 0.015 µg/mL | 0.857
[2], first compound 0.0155 µg/mL, partner 0.02 µg/mL | 0.834
[2], first compound 0.031 µg/mL, partner 0.005 µg/mL | 0.886
[2], first compound 0.031 µg/mL, partner 0.01 µg/mL | 0.896
[2], first compound 0.031 µg/mL, partner 0.02 µg/mL | 0.783
[2], first compound 0.062 µg/mL, partner 0.005 µg/mL | 0.807
[2], first compound 0.062 µg/mL, partner 0.01 µg/mL | 0.856
[2], first compound 0.062 µg/mL, partner 0.02 µg/mL | 0.807

fitness, [2], one replicate
Settings | first compound 0.003875 µg/mL | first compound 0.00775 µg/mL | first compound 0.031 µg/mL | first compound 0.062 µg/mL
partner 0.0037 µg/mL | 0.939 | 0.881 | 0.692 | 0.352
partner 0.0075 µg/mL | 0.952 | 0.894 | 0.806 | 0.679
partner 0.015 µg/mL | 0.909 | 0.874 | 0.721 | 0.59

Settings | Bliss interaction score
[3] | 0.0361
[4] | 0.0965
[5] | 0.036
[6] | -0.0559

C[C@H]1c2cccc(O)c2C(=O)C2=C(O)[C@]3(O)C(=O)C(C(N)=O)=C(O)[C@@H](N(C)C)[C@@H]3[C@@H](O)[C@@H]21 [Doxycycline] + COc1ccc(C[C@H](N)C(=O)N[C@H]2[C@@H](O)[C@H](n3cnc4c(N(C)C)ncnc43)O[C@@H]2CO)cc1 [Puromycin]
Settings | fitness
[1], first compound 0.02 µg/mL, partner 0.39 µg/mL | 0.861
[1], first compound 0.02 µg/mL, partner 0.78 µg/mL | 0.858
[1], first compound 0.02 µg/mL, partner 1.56 µg/mL | 0.877
[1], first compound 0.04 µg/mL, partner 0.39 µg/mL | 0.748
[1], first compound 0.04 µg/mL, partner 0.78 µg/mL | 0.751
[1], first compound 0.04 µg/mL, partner 1.56 µg/mL | 0.761
[1], first compound 0.08 µg/mL, partner 0.39 µg/mL | 0.405
[2], first compound 0.0155 µg/mL, partner 1 µg/mL | ≥ 1
[2], first compound 0.0155 µg/mL, partner 2 µg/mL | 0.97
[2], first compound 0.0155 µg/mL, partner 4 µg/mL | 0.834
[2], first compound 0.031 µg/mL, partner 1 µg/mL | 0.857
[2], first compound 0.031 µg/mL, partner 2 µg/mL | 0.836
[2], first compound 0.031 µg/mL, partner 4 µg/mL | 0.73
[2], first compound 0.062 µg/mL, partner 1 µg/mL | 0.847
[2], first compound 0.062 µg/mL, partner 2 µg/mL | 0.786
[2], first compound 0.062 µg/mL, partner 4 µg/mL | 0.637

fitness, [2], one replicate
Settings | partner 1 µg/mL | partner 2 µg/mL | partner 4 µg/mL
first compound 0.003875 µg/mL | ≥ 1 | 0.98 | 0.847
first compound 0.00775 µg/mL | ≥ 1 | 0.976 | 0.86

Settings | Bliss interaction score
[3] | -0.0496
[4] | -0.0866
[5] | -0.0507
[6] | 0.0767

C[C@H]1c2cccc(O)c2C(=O)C2=C(O)[C@]3(O)C(=O)C(C(N)=O)=C(O)[C@@H](N(C)C)[C@@H]3[C@@H](O)[C@@H]21 [Doxycycline] + C[C@@H]1O[C@@H]1P(=O)(O)O [Fosfomycin]
fitness
Settings | partner 1.25 µg/mL | partner 1.562 µg/mL | partner 2.5 µg/mL | partner 3.124 µg/mL | partner 5 µg/mL | partner 6.248 µg/mL
[1], first compound 0.02 µg/mL | – | 0.752 | – | 0.645 | – | 0.556
[1], first compound 0.04 µg/mL | – | 0.699 | – | 0.56 | – | 0.419
[1], first compound 0.08 µg/mL | – | 0.5 | – | 0.364 | – | 0.253
[2], first compound 0.0155 µg/mL | 0.894 | – | 0.862 | – | 0.791 | –
[2], first compound 0.031 µg/mL | 0.799 | – | 0.804 | – | 0.742 | –

fitness, [2], one replicate
Settings | partner 1.25 µg/mL | partner 2.5 µg/mL | partner 5 µg/mL
first compound 0.003875 µg/mL | 0.969 | 0.883 | 0.753
first compound 0.00775 µg/mL | 0.97 | 0.915 | 0.814

Settings | Bliss interaction score
[3] | 0.131
[4] | -0.153
[5] | -0.113
[6] | -0.096

C[C@H]1c2cccc(O)c2C(=O)C2=C(O)[C@]3(O)C(=O)C(C(N)=O)=C(O)[C@@H](N(C)C)[C@@H]3[C@@H](O)[C@@H]21 [Doxycycline] + C[C@H]1COc2c(N3CCN(C)CC3)c(F)cc3c(=O)c(C(=O)O)cn1c23 [Levofloxacin]
fitness, one replicate
Settings | first compound 0.003875 µg/mL | first compound 0.00775 µg/mL | first compound 0.02 µg/mL | first compound 0.031 µg/mL | first compound 0.04 µg/mL | first compound 0.062 µg/mL | first compound 0.08 µg/mL
[1], partner 0.001 µg/mL | – | – | 0.929 | – | 0.859 | – | 0.735
[1], partner 0.0078 µg/mL | – | – | 0.989 | – | 0.859 | – | 0.712
[2], partner 0.2 µg/mL | 0.984 | 0.927 | – | 0.822 | – | 0.712 | –
[2], partner 0.4 µg/mL | 0.858 | 0.838 | – | 0.816 | – | 0.687 | –
[2], partner 0.8 µg/mL | 0.581 | 0.62 | – | 0.697 | – | 0.595 | –

Settings | fitness
[1], first compound 0.02 µg/mL, partner 0.002 µg/mL | 0.937
[1], first compound 0.02 µg/mL, partner 0.0039 µg/mL | 0.939
[1], first compound 0.02 µg/mL, partner 0.0312 µg/mL | 0.0328
[1], first compound 0.02 µg/mL, partner 0.0625 µg/mL | 0.0358
[1], first compound 0.02 µg/mL, partner 0.125 µg/mL | 0.0474
[1], first compound 0.04 µg/mL, partner 0.002 µg/mL | 0.784
[1], first compound 0.04 µg/mL, partner 0.0039 µg/mL | 0.817
[1], first compound 0.04 µg/mL, partner 0.0312 µg/mL | 0.0347
[1], first compound 0.04 µg/mL, partner 0.0625 µg/mL | 0.032
[1], first compound 0.04 µg/mL, partner 0.125 µg/mL | 0.0298
[1], first compound 0.08 µg/mL, partner 0.002 µg/mL | 0.656
[1], first compound 0.08 µg/mL, partner 0.0039 µg/mL | 0.681
[1], first compound 0.08 µg/mL, partner 0.0312 µg/mL | 0.0307
[1], first compound 0.08 µg/mL, partner 0.0625 µg/mL | 0.0405
[1], first compound 0.08 µg/mL, partner 0.125 µg/mL | 0.0329
[2], first compound 0.0155 µg/mL, partner 0.1725 µg/mL | 0.895
[2], first compound 0.0155 µg/mL, partner 0.2 µg/mL | 0.946
[2], first compound 0.0155 µg/mL, partner 0.345 µg/mL | 0.805
[2], first compound 0.0155 µg/mL, partner 0.4 µg/mL | 0.887
[2], first compound 0.0155 µg/mL, partner 0.69 µg/mL | 0.584
[2], first compound 0.0155 µg/mL, partner 0.8 µg/mL | 0.677
[2], first compound 0.031 µg/mL, partner 0.1725 µg/mL | 0.889
[2], first compound 0.031 µg/mL, partner 0.345 µg/mL | 0.795
[2], first compound 0.031 µg/mL, partner 0.69 µg/mL | 0.485
[2], first compound 0.062 µg/mL, partner 0.1725 µg/mL | 0.873
[2], first compound 0.062 µg/mL, partner 0.345 µg/mL | 0.775
[2], first compound 0.062 µg/mL, partner 0.69 µg/mL | 0.652

Settings | Bliss interaction score
[3] | 0.043
[4] | 0.075
[5] | 0.0574
[6] | 0.0649
